Consider 24 molecules from article PMC3362798 (Bioorganic & medicinal chemistry letters, 2012).

Where two headings read alike, the source gives them in different places.

One data set has as its system mice. Particulars: intracerebroventricular (icv) administration; cited from earlier work.
Another data set has as its system NPY Y2. Particulars: NPY Y2 antagonist; cited from earlier work.
The conditions of data set [1]: cited from earlier work.
A further data set has as its system rats. To be noted: intracerebroventricular (icv) administration; cited from earlier work.
Another data set has as its target T1, NPY Y2 receptor (Homo sapiens, UniProt P49146).
T1 sequence (P49146 1-381): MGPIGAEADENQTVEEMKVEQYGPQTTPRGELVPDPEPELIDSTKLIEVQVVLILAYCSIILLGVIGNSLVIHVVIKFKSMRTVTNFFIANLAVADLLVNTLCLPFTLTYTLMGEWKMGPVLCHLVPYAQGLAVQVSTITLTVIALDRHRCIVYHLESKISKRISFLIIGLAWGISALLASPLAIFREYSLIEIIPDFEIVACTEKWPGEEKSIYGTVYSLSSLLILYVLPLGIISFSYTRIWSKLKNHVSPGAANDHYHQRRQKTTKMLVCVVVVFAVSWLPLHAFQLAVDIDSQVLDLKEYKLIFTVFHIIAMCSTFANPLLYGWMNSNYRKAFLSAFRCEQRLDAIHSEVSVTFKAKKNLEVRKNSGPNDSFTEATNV
Kind of data set: cAMP biosensor assay, NPY Y2 receptor antagonism. In kind it is cell-based. Particulars: for fold increase in potency compared to SF-11: more potent than SF-11.

Data set [2] deals with NPY Y1 and 38 off-target receptors, including GPCRs, transporters and ion-channels. To be noted: cited from earlier work.

Regarding `N=C(N)NCCC[C@H](NC(=O)CC1(CC(=O)N2CCN(C3c4ccccc4NC(=O)c4ccccc43)CC2)CCCC1)C(=O)NCCn1c(=O)n(-c2ccccc2)n(-c2ccccc2)c1=O` (stereo partly shown) [BIIE0246], in the data set with mice, the antidepressant-like effects result is given as “induced antidepressant-like effects”. For the same molecule, the IC50 (in general, the concentration needed to halve the response being measured) in the data set on NPY Y2 is 3.3 nM. Also, the brain penetration result in data set [1] (BIIE0246) is reported as “poor brain penetration”. In the data set on rats, the ethanol consumption entry is recorded as “decreased ethanol consumption”.
As for `OC(c1ccccc1)(c1ccccc1)C1CCN(C(=S)Nc2ccccc2)CC1` [Compound 1], on NPY Y2 receptor, the “NPY Y2 antagonist activity (in words)” value was “complete loss of activity”.
Regarding `CCN(CC)c1ccc(NC(=S)N2CCC(C(O)(c3ccccc3)c3ccccc3)CC2)cc1` [Compound 8], at NPY Y2 receptor, the “fold increase in potency compared to SF-11” value was about 3 fold.
Regarding `CCN(CC)C(=O)c1ccc(NC(=S)N2CCC(C(O)(c3ccccc3)c3ccccc3)CC2)cc1` [Compound 15], the “fold more potent than N,N-dimethylamide analogue 14” value on NPY Y2 receptor (compared with 14) was determined as 4 fold.
On to `CN(C)S(=O)(=O)c1ccc(NC(=S)N2CCC(C(O)(c3ccccc3)c3ccccc3)CC2)cc1` [Compound 16], for which the “fold increase in potency compared to SF-11” value on NPY Y2 receptor came to 10 fold.
For `CCOC(=O)c1cccc(NC(=S)N2CCC(C(O)(c3ccccc3)c3ccccc3)CC2)c1` [Compound 22], the “NPY Y2 antagonist activity (in words)” value on NPY Y2 receptor was “partial antagonism”.
The same measure, in the same setting: under `CCOc1ccc(NC(=S)N2CCC(C(O)(c3ccccc3)c3ccccc3)CC2)c(C)c1` [Compound 27] stands “complete loss of activity”; under `CCOc1ccc(NC(=S)N2CCC(C(O)(c3ccccc3)c3ccccc3)CC2)c(C(F)(F)F)c1` [Compound 28], “complete loss of activity”.
The same measure, in the same setting: the result for `OC(c1ccccc1)(c1ccccc1)C1CCN(C(=S)Nc2ccc(C(F)(F)F)cc2Cl)CC1` [Compound 29] reads “complete loss of activity”.
For the molecule `CCOc1ccc(NC(=S)N2CCC(C(O)(c3ccccc3)c3ccccc3)CC2)c(F)c1` [Compound 30], at NPY Y2 receptor (less potent than SF-11), the “fold less potent than SF-11” value is given as about 7 fold.
`COC(c1ccccc1)(c1ccccc1)C1CCN(C(=S)Nc2ccc(S(=O)(=O)N(C)C)cc2)CC1` [Compound 35]: on NPY Y2 receptor, the “NPY Y2 antagonist activity (in words)” value is recorded as “no activity”.
Regarding `CCOc1ccc(NC(=S)N2CCN(C(c3ccccc3)c3ccccc3)CC2)cc1` [Compound 36], on NPY Y2 receptor, the “NPY Y2 antagonist activity (in words)” value is reported as “retained the activity”.
Still for that read-out and setting: the result for `CCOc1ccc(NC(=S)N2CCC(C(O)(c3ccccc3)C3CCCCC3)CC2)cc1` (stereo not shown) [Compound 38] reads “complete loss of activity”; that for `CN(C)S(=O)(=O)c1ccc(NC(=S)N2CCN(C3c4ccccc4CCc4ccccc43)CC2)cc1` [Compound 45], “inactive”.
Consider `CCN(CC)C(=O)c1ccc(OC(=O)N2CCC(C(O)(c3ccccc3)c3ccccc3)CC2)cc1` [Compound 60], for which the “fold less potent than N,N-diethyl sulfonamide analogue 54” value on NPY Y2 receptor (compared with 54) turned out to be 18 fold.
Take `CC(=O)Nc1ccc(OC(=O)N2CCC(C(O)(c3ccccc3)c3ccccc3)CC2)cc1` [Compound 61]: on NPY Y2 receptor, the “NPY Y2 antagonist activity (in words)” value was “completely lost the activity”.
`CCC(=O)Nc1ccc(OC(=O)N2CCC(C(O)(c3ccccc3)c3ccccc3)CC2)cc1` [Compound 62]: the “NPY Y2 antagonist activity (in words)” value on NPY Y2 receptor is on record as “completely lost the activity”.
Regarding `CS(=O)(=O)Nc1ccc(OC(=O)N2CCC(C(O)(c3ccccc3)c3ccccc3)CC2)cc1` [Compound 63], on NPY Y2 receptor, the “NPY Y2 antagonist activity (in words)” value is “retained the antagonist activity”.
Same read-out and setting: the result for `CCN(CC)C(=O)c1cccc(OC(=O)N2CCC(C(O)(c3ccccc3)c3ccccc3)CC2)c1` [Compound 64] reads “no activity”; that for `CCN(CC)S(=O)(=O)c1cccc(OC(=O)N2CCC(C(O)(c3ccccc3)c3ccccc3)CC2)c1` [Compound 65], “no activity”.
`CCOc1ccc(NC(=S)N2CCC(C(O)(c3ccccc3)c3ccccc3)CC2)cc1` [SF-11, N-(4-ethoxyphenyl)-4-[hydroxy(diphenyl)methyl]piperidine-1-carbothioamide]: in data set [1] (HTS hit chemotypes), the brain penetration entry is recorded as “brain-penetrant”. For the same molecule, the “selectivity against NPY Y1 and 38 off-target receptors” value (from here on “selectivity”) in data set [2] is given as “selective”.
Consider `Cc1ccc(C)c(NS(=O)(=O)c2cc(C(=O)Nc3ccccc3-c3ccccc3)ccc2C)c1` [SF-21], for which the brain penetration entry in data set [1] (HTS hit chemotypes) is on record as “brain-penetrant”. In data set [2], the “selectivity” value is reported as “selective”.
Consider `COc1cccc(-c2nc(-c3ccc(NC(=O)Cc4ccccc4OC)cc3)no2)c1` [SF-31], for which the brain penetration entry in data set [1] (HTS hit chemotypes) was “brain-penetrant”. Besides, in data set [2], the “selectivity” value is “selective”.
With `Cc1ccc(S(=O)(=O)C(c2ccccc2)c2c(C)noc2C)cc1` (stereo not shown) [SF-41], the brain penetration result in data set [1] (HTS hit chemotypes) is “brain-penetrant”. In addition, the “selectivity” value in data set [2] is “selective”.
